# Measured values reported in patent US8133906B2, “Method of treating amblyopia” (Hermo Pharma Oy, priority 2007, dated 2012).
# “Also recorded” adds a separate entry of the source.
# Tests used:
# [1] = system: adult rats, visual cortex contralateral to the deprived eye; assay: Intracortical infusion of diazepam or vehicle during MD in fluoxetine treated rats, C/I VEP ratio; type: in vivo, rat; settings: cortical diazepam 2 mg/ml during last week of chronic fluoxetine
# Protocol: Additional doses of urethane were used to keep the anesthesia level stable throughout the experiment. Body temperature was continuously monitored and maintained at ˜37° C. by a thermostated electric blanket during the experiment. An ECG was continuously monitored. A hole was drilled in the skull, corresponding to the binocular portion of the primary visual cortex (binocular area OclB) contralateral to the deprived eye. After exposure of the brain surface, the dura was removed, and a micropipette (2 MΩ) filled with NaCl (3 M) was inserted into the cortex 5 mm from λ (intersection between sagittal- and lambdoid-sutures). Both eyes were fixed and kept open by means of adjustable metal rings surrounding the external portion of the eye bulb. We measured visual acuity through both eyes using visual evoked potentials (VEPs). During recording through one eye, the other was covered by a black adhesive tape. […] Transient VEPs in response to abrupt contrast reversal (0.5 Hz) were evaluated in the time domain by measuring the peak-to-baseline amplitude and peak latency of the major negative component. Visual stimuli were horizontal sinusoidal gratings of different spatial frequencies and contrast, generated by a VSG2/2 card running custom software and presented on a monitor (20×22 cm; luminance 15 cd m^−2) positioned 20 cm from the rat's eyes and centred on the previously determined receptive fields. […]
# BDNF = BDNF protein expression by ELISA after repeated fluoxetine administration; type: in vivo, rat; settings: adult rats
# Protocol: (§1) This method of administration yields steady-state plasma concentrations of 356±99 ng/ml in rats, which is within the recommended plasma concentration for the treatment of depression in humans (50-450 ng/ml).
# Proteins from fresh visual cortex and hippocampus were initially extracted, respectively, using lysis buffer (1% Triton X-100, 10% Glycerol, 20 mM TrisHCl pH 7.5, 150 mM NaCl, 10 mM EDTA, 0.1 mM Na3VO4, 1¼ g/ml Leupeptin, 1¼ g/ml Aprotinin, 1 mM PMSF). The total concentration of samples was quantified with the protein assay kit (Bio-Rad, Hercules, Calif.) using a BSA based standard curve. Afterwards, BDNF expression was assessed loading 100 μg of total proteins in triplicate in a standard ELISA plate together with a standard curve and processed as indicated in the manufacturer protocol (BDNF, Promega).
# [2] = system: adult amblyopic rats, visual cortex contralateral to the long-term deprived eye; assay: VEP recording of visual acuity and binocularity in adult amblyopic rats (long-term MD from P21, reverse suture); type: in vivo, rat; settings: long-term MD from P21, reverse suture last two weeks of 4-week fluoxetine, n=5, control 0.62±0.06, fellow eye 1.06±0.01
# Protocol: as §1
# To perform analysis of long-term MD, rats were anesthetized with avertin (1 ml kg^−1) and monocularly deprived through eyelid suturing at P21. Eyelid closure was inspected daily until complete cicatrization; subjects with even minimal spontaneous re-opening were excluded. […] The long-term deprived eye was re-opened using thin scissors, while the other eye was sutured shut. […]
# Additional doses of urethane were used to keep the anesthesia level stable throughout the experiment. Body temperature was continuously monitored and maintained at ˜37° C. by a thermostated electric blanket during the experiment. An ECG was continuously monitored. […] We measured visual acuity through both eyes using visual evoked potentials (VEPs). […] Transient VEPs in response to abrupt contrast reversal (0.5 Hz) were evaluated in the time domain by measuring the peak-to-baseline amplitude and peak latency of the major negative component. […] Binocularity (ocular dominance) was assessed calculating the contralateral to ipsilateral (C/I) VEP ratio, i.e. the ratio of VEP amplitudes recorded by stimulating the eye respectively contralateral and ipsilateral to the visual cortex where recording is performed.
# [3] = humans; cited from earlier work
# adult amblyopic rats = assay: Behavioral assessment of visual acuity (visual water task) in adult amblyopic rats; type: in vivo, rat; settings: reverse suture, 4-week fluoxetine, n=5
# Protocol: as §1
# To perform analysis of long-term MD, rats were anesthetized with avertin (1 ml kg^−1) and monocularly deprived through eyelid suturing at P21. Eyelid closure was inspected daily until complete cicatrization; subjects with even minimal spontaneous re-opening were excluded. […] The long-term deprived eye was re-opened using thin scissors, while the other eye was sutured shut. Great care was taken during the first days after RS to prevent inflammation or infection in the previously deprived eye through topical application of antibiotic and cortisone.
# Then, after RS, during the third week of treatment (P90), we started measuring visual acuity of the long term deprived eye. […] To measure visual acuity, we used the visual water task (Prusky et al., 2000) which trains animals to first distinguish a low (0.1 cycles per degree (c deg^−1)) spatial frequency vertical grating from grey, and then tests the limit of this ability at higher spatial frequencies. The apparatus consists of a trapezoidal-shaped pool with two panels placed side by side at one end. […] A trial is recorded as incorrect if an animal enters the arm without the platform. […]
# [4] = system: adult rat visual cortex slices; assay: LTP recordings in visual cortex slices after theta-burst stimulation from the white matter (WM-LTP); settings: slices from fluoxetine treated adult rats (P100), measured 20-30 min following TBS
# Description: Slices (0.35 mm thick) of visual cortex were obtained using a Leica (Nussloch, Germany) vibratome. […] The recording solution was composed as the cutting solution with the following differences (in mM): 130 NaCl, 5.0 dextrose, 1.0 MgCl2, 2.0 CaCl2, 0.01 glycine, no kynurenate, no sucrose. Electrical stimulation (100 μsec duration) was delivered with a bipolar concentric stimulating electrode (FHC, St. Bowdoinham, Me.) placed at the border of the white matter and layer VI. Field potentials in layers II-III were recorded by a micropipette (1-3MΩ) filled with NaCl (3 M). Baseline responses were obtained every 30 sec with a stimulation intensity that yielded a half-maximal response. After achievement of a 15 min stable baseline (field potential amplitude within 15% of change and with no evident increasing or decreasing trends), θ burst stimulation (TBS) was delivered. Postsynaptic field potentials after TBS were recorded every 30 sec during 30 min.
# [5] = system: adult Long-Evans hooded rats, binocular visual cortex contralateral to the deprived eye; assay: Ocular dominance plasticity after one week of monocular deprivation (MD) in adult rats, C/I VEP ratio; type: in vivo, rat; settings: fluoxetine alone, without deprivation of one eye
# Protocol: Adult Long-Evans hooded rats were used in this study. Animals were group-housed under standard conditions with food and water ad libitum in plexiglass cages (40×30×20 cm) and kept in a 12:12 light/dark cycle.
# Adult animals, under treatment, were anesthetized with avertin (1 ml kg^−1) and mounted on a stereotaxic apparatus to be monocularly deprived. Eyelid closure was inspected daily until complete cicatrization; subjects with even minimal spontaneous re-opening were excluded. Great care was taken during the first days after MD to prevent inflammation or infection of the deprived eye through topical application of antibiotic and cortisone.
# Additional doses of urethane were used to keep the anesthesia level stable throughout the experiment. Body temperature was continuously monitored and maintained at ˜37° C. by a thermostated electric blanket during the experiment. An ECG was continuously monitored. A hole was drilled in the skull, corresponding to the binocular portion of the primary visual cortex (binocular area OclB) contralateral to the deprived eye. […] We measured visual acuity through both eyes using visual evoked potentials (VEPs). […] Transient VEPs in response to abrupt contrast reversal (0.5 Hz) were evaluated in the time domain by measuring the peak-to-baseline amplitude and peak latency of the major negative component. […]
# [6] = system: extracellular GABA and glutamate in visual cortex; assay: In vivo brain microdialysis in the visual cortex with HPLC of GABA and glutamate; design: species or system rat; settings: adult rats, repeated fluoxetine
# Protocol: After the end of repeated treatment with fluoxetine, the in vivo sampling of dialysates was performed inserting a microdialysis probe into the guide shaft previously implanted. A detailed description of the procedure followed is reported in (Hernandez et al., 1986). Briefly, the probe was made of concentric fused-silica polyimide covered capillary tube into a 26 gauge stainless steel tube with a 1 mm long tip of exposed cellulose membrane (6000 MW cut-off). It was connected to a dialysis system pumping an artificial CSF (142 mM NaCl, 3.9 mM KCl, 1.2 mM CaCl2, 1 mM MgCl2, 1.35 mM Na2HPO4, pH 7.4) at a flow rate of 1 μl min^−1. The probe protruded 1 mm from the tip of the guide shaft. Six hours after insertion of the probe (stabilization period), sampling was carried out.
# After brain microdialysis, rats were sacrificed with an overdose of chloral hydrate and perfused intracardially as described above. Brains were post-fixed for two hours before being immersed in 30% sucrose in PBS. […]
# Analysis of γ-aminobutyric acid (GABA) and glutamate (GLU) basal levels from microdialysates was performed using High Performance Liquid Chromatography (HPLC) coupled to a fluorimetric detection system. […] Homoserine was used as internal standard and amino-acid concentrations were calculated from a linear standard curve built upon known concentrations of injected amino acids. […]
Compound,Effect on OD shift induced by MD in fluoxetine treated rats [1],BDNF protein expression in hippocampus vs controls (BDNF; t-test p<0.01 n=6),BDNF protein expression in visual cortex vs controls (BDNF; t-test p<0.04 n=6),Visual acuity of the formerly deprived eye (VEP) [2] [c deg^−1],Recommended (therapeutic) plasma concentration for the treatment of depression [3] [ng/mL],"Visual acuity of the formerly deprived eye (behavioral, visual water box task) (adult amblyopic rats) [c deg^−1]",WM-LTP of layer II-III field potentials after theta-burst stimulation vs controls [4],Responsiveness of either eye to visual stimulation [5],Extracellular glutamate (GLU) levels vs controls ([6]; data not shown),"Basal extracellular levels of GABA in visual cortex vs controls ([6]; n=5, p<0.02)"
CN1C(=O)CN=C(c2ccccc2)c2cc(Cl)ccc21 [diazepam],prevented the restoration of OD plasticity; also recorded: totally prevented,–,–,–,–,–,–,–,–,–
CNCCC(Oc1ccc(C(F)(F)F)cc1)c1ccccc1 (stereo not shown) [fluoxetine],–,significantly higher; also recorded: similarly enhanced,significantly higher,0.97±0.04,50 to 450,0.88±0.02,significantly enhanced; also recorded: fully restored,did not produce any changes,No difference,significantly lower; also recorded: significant reduction
